This is an account of results in ChEMBL document CHEMBL1129164, “Molecular design, chemical synthesis and biological studies of novel enediynes related to dynemicin a” (Bioorg Med Chem Lett, 1996).

Each structure is given as a SMILES string. In brackets after ≈: the same amount, converted by molar mass.

Format in all cases: functional, cell-based
In experiment [1] the test system is COLO 205. Put plainly: In vitro growth inhibition of COLO 205 (colon cell line) human tumor cells.
Experiment [2] has as its system HepG2. Put plainly: In vitro growth inhibition of Hep G2 ([…] line) human tumor cells.
Experiment [3] concerns MOLT-4. Put plainly: In vitro growth inhibition of Molt-4 (leukemia cell line) human tumor cells.
Experiment [4] has as its system SK-BR-3. Put plainly: In vitro growth inhibition of SK-BR-3 (breast cancer cell line) human tumor cells.

Regarding `CCOC(=O)N1c2ccccc2[C@@H]2O[C@@H]2C1C#Cc1ccccc1C#CCS(=O)(=O)c1ccccc1` (stereo partly drawn), the IC50 in experiment [1] came to 9.59 µg/mL (≈ 19.3 µM); in experiment [2], 8.91 µg/mL (≈ 17.9 µM); in experiment [3], 4.64 µg/mL (≈ 9.33 µM); in experiment [4] it was 9.23 µg/mL (≈ 18.6 µM).

Regarding `CCOC(=O)N1c2ccccc2C(=O)CC1C#C/C=C\C#CCS(=O)(=O)c1ccccc1` (stereo not drawn), the IC50 in experiment [1] is 53 µg/mL (≈ 119 µM); in experiment [2], 50.2 µg/mL (≈ 112 µM); in experiment [3] it was 5.63 µg/mL (≈ 12.6 µM); in experiment [4], 43.9 µg/mL (≈ 98 µM).

`CCOC(=O)N1c2ccccc2[C@@H](O)[C@H](O)C1C#C/C=C\C#CCS(=O)(=O)c1ccccc1` (stereo partly drawn): the IC50 was found to be 49.7 µg/mL (≈ 107 µM) in experiment [1], 57.8 µg/mL (≈ 124 µM) in experiment [2], 10.2 µg/mL (≈ 21.9 µM) in experiment [3] and 46.7 µg/mL (≈ 100 µM) in experiment [4].

As for `CCOC(=O)N1c2ccccc2[C@@H](S(=O)(=O)c2ccccc2)[C@H](O)C1C#Cc1ccccc1C#CCS(=O)(=O)c1ccccc1` (stereo partly drawn), the IC50 turned out to be 5.33 µg/mL (≈ 8.33 µM) in experiment [1], 3.75 µg/mL (≈ 5.86 µM) in experiment [2], 0.73 µg/mL (≈ 1.14 µM) in experiment [3] and 6.26 µg/mL (≈ 9.79 µM) in experiment [4].

As to `CCOC(=O)N1c2ccccc2[C@@H]2O[C@@H]2C1C#C/C=C\C#CCS(=O)(=O)c1ccccc1` (stereo partly drawn), the IC50 in experiment [1] amounted to 26 µg/mL (≈ 58 µM); in experiment [2], 9.01 µg/mL (≈ 20.1 µM); in experiment [3] it was 5.5 µg/mL (≈ 12.3 µM); in experiment [4], 19.5 µg/mL (≈ 43.5 µM).

As to `C#CC1[C@H]2O[C@H]2c2ccccc2N1C(=O)OCC` (stereo partly drawn), the IC50 in experiment [1] is greater than 100 µg/mL; in experiment [2] it was greater than 100 µg/mL; in experiment [3], 66.5 µg/mL (≈ 274 µM); in experiment [4], greater than 100 µg/mL.

Consider `CCOC(=O)N1c2ccccc2C(=O)CC1C#Cc1ccccc1C#CCS(=O)(=O)c1ccccc1` (stereo not drawn), for which the IC50 in experiment [1] amounted to 50.1 µg/mL (≈ 101 µM); in experiment [2], 70 µg/mL (≈ 141 µM); in experiment [3], 7.26 µg/mL (≈ 14.6 µM); in experiment [4] it was 53.6 µg/mL (≈ 108 µM).
